Data reported in patent US11226337B2, “Chemoproteomic profiling of protein electrophilic and oxidative post-translational modifications” (Zenagem, LLC, priority 2017, dated 2022).

Legend:
Assay type in all cases: cell-based
[1] = target: T1, AMD1 (Homo sapiens, UniProt P17707); experiment: probe labelling of E. coli cells expressing the protein; details: probe 1 3 mM or probe 2 1 mM, 37° C., 0.5 hour
T1 construct: made in house; host or cells: E. coli (intact cells treated with probe)
Protocol: Induced overnight cultures expressing each protein were resuspended in serum-free DMEM supplemented with 10 mM Na-HEPES buffer (pH 7.5) such that the final OD600 was ˜10. The probes were added to the cells (3 and 1 mM, respectively, for 1 and 2) and incubated at 37° C. for 0.5 hour. Note that these are the same conditions used for treatment of mammalian cells. The cells were pelleted (16,000 g, 3 min, 4° C.), washed with PBS (2×1 mL), and resuspended in HEPES buffer or PBS maintaining the same initial volume. Cells were lysed by sonication, debris was pelleted, soluble protein was diluted to 0.5 mg/mL with PBS and probe-labelled proteins were conjugated to rhodamine-azide and visualized as described above in Example 2.

[2] = target: T2, SCRN2 Secernin-2 (Q96FV2) (Homo sapiens, UniProt Q96FV2); experiment: SILAC RP-ABPP; details: SILAC H/L, HEK293T
T2 construct: shared by both the endogenous and recombinant forms of these proteins; endogenous in cells; host or cells: HEK293T and MDA-MB-231
Protocol: (§1) Modifications to this protocol included using isotopically ‘light’ and ‘heavy’ SILAC cells that were also grown to near complete confluence prior to treatment. Isotopically light cells were treated with the non-clickable hydrazine probe (at the same concentration as the probe in ‘enrichment’ experiments) or the probe in the presence of 10-fold excess non-clickable hydrazine probe as a competitor (in ‘competition’ experiments). Isotopically heavy cells were treated with the probe for both types of experiments. These treatments were performed in non-SILAC media. Following treatments, cells were washed with cold PBS to remove the probe-containing media, harvested by scraping, collected by centrifugation (1,400 g, 3 min, 4° C.), washed again by resuspension in cold PBS and frozen as pellets at −80° C. until use.
(§2) The fractionated equimolar mixture of heavy and light soluble proteomes (1-1.5 mg) was diluted to 1 mL in PBS. Click reactions were scaled accordingly (except for biotin-azide) to maintain final concentrations of 0.1 mM TBTA, 1 mM CuSO4, 100 μM biotin-azide (10 mM in DMSO) and 1 mM TCEP. The mixture was vortexed and placed on a rotator at ambient temperature for 1 hour. Sequential addition of and mixture with pre-chilled methanol (MeOH, 2 mL), chloroform (CHCl3, 0.5 mL) and PBS (1 mL) on ice quenched the reaction. The precipitated proteome was centrifuged (5,000 g, 10 min, 4° C.) to fractionate the protein interphase from the organic and aqueous solvent layers. The protein pellet was washed with cold 1:1 MeOH:CHCl3 (3×1 mL), mildly sonicated in cold 4:1 MeOH:CHCl3 (2.5 mL) and pelleted once more by centrifugation (5,000 g, 10 min, 4° C.) to ensure click reagents were efficiently removed.
(§3) Heavy and light parent ion chromatograms associated with successfully identified peptides were extracted and compared using CIMAGE software as previously described^69. At least one ion of a co-eluting heavy-light pair must be accurately identified from a fragmentation event that occurred within the retention time window (±10 min) of parent ion elution. To ensure that the correct pair of peaks is quantified, chromatograms are extracted within a 10 ppm error tolerance of the predicted m/z, the signal-to-noise ratio must be >2.5 and the ‘co-elution correlation score’ and ‘envelope correlation score’ must have R^2 values ≥0.8. In addition, peptides detected as ‘singletons,’ where only the heavy ion of a peptide pair was identified, but for which passed all other filtering parameters, are given a default assigned ratio of ‘20,’ which is defined as any measured ratio that is ≥20.
(§4) To further eliminate false positives and any stochastic variability in the data, protein ratios were then determined by the median peptide ratio derived from three or more unique quantified peptides. Protein ratios that complied with these criteria from a single experiment were then averaged with ratios acquired from ≥3 replicates to provide final values for each type of experiment in both cell lines with both probes. […] Probe targets in HEK293T and MDA-MB-231 cells represent data combined from ≥3 independent biological replicates with each cell type performed with several independent batches of synthesized probes over a period of almost two years.
(§5) Two types of experiments were performed—1) direct enrichment of probe 1-labelled proteins from heavy cells in comparison to light control cells treated with the non-clickable hydrazine (3) at the same concentration as 1 (3 mM for 0.5 h); and 2) competition experiments where both heavy and light cells were treated probe 1, but light cells were also treated with 10× competitor 3 (FIG. 3A)—in two different human cell lines (HEK293T cells and the human breast cancer cell line MDA-MB-231).

[3] = target: T3, AMD1 S-adenosylmethionine decarboxylase (P17707) (Homo sapiens, UniProt P17707); experiment: SILAC RP-ABPP; details: SILAC H/L, HEK293T
T3 construct: shared by both the endogenous and recombinant forms of these proteins; endogenous in cells; host or cells: HEK293T and MDA-MB-231
T3 sequence (P17707 68-334 limits assumed): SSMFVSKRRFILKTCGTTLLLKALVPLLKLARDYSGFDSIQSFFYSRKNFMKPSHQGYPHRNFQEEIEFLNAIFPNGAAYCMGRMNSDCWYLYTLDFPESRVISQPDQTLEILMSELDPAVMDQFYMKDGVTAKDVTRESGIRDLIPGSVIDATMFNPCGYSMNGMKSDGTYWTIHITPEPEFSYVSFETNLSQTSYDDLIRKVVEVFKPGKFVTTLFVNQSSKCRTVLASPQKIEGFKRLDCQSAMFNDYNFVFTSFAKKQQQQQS
T3 sequence (P17707 1-67 limits assumed): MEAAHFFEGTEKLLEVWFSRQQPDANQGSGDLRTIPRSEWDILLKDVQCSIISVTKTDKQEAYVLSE
Protocol: as §1, §2, §3, §4, §5

[4] = target: T4, SCRN3 Secernin-3 (Q0VDG4) (Homo sapiens, UniProt Q0VDG4); experiment: SILAC RP-ABPP; details: SILAC H/L, HEK293T
T4 construct: shared by both the endogenous and recombinant forms of these proteins; endogenous in cells; host or cells: HEK293T and MDA-MB-231
T4 sequence (Q0VDG4 6-424): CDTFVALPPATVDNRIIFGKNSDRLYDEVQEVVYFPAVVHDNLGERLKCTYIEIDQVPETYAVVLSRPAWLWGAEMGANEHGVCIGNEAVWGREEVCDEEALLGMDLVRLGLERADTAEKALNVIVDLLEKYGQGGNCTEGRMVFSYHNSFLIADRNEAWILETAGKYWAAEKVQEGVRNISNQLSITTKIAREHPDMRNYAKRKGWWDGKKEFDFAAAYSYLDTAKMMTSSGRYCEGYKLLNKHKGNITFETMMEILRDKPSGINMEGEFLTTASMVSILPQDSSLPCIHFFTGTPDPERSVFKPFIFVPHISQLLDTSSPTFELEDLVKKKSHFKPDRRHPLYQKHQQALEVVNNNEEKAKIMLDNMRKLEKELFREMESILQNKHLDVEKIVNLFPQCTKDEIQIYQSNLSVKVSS
Protocol: as §1, §2, §3, §4, §5

Row | enrichment ratioavg ([2]; probe 2 1 mM 0.5 h vs probe 4) | competition ratioavg ([2]; probe 2 vs probe 2+10x probe 4) | enrichment ratioavg ([3]; probe 2 1 mM 0.5 h vs probe 4) | competition ratioavg ([3]; probe 2 vs probe 2+10x probe 4) | enrichment ratioavg ([4]; probe 2 1 mM 0.5 h vs probe 4) | competition ratioavg ([4]; probe 2 vs probe 2+10x probe 4) | Structure (SMILES) | probe labelling of protein expressed in E. coli [1] | enrichment ratioavg ([2]; probe 1 3 mM 0.5 h vs probe 3) | competition ratioavg ([2]; probe 1 vs probe 1+10x probe 3) | enrichment ratioavg ([3]; probe 1 3 mM 0.5 h vs probe 3) | competition ratioavg ([3]; probe 1 vs probe 1+10x probe 3) | enrichment ratioavg ([4]; probe 1 3 mM 0.5 h vs probe 3) | competition ratioavg ([4]; probe 1 vs probe 1+10x probe 3)
1 | 20 | 13 | 20 | 6 | 15 | 16 | C#CCCNC(=O)c1ccc(NN)cc1.Cl [probe 2, N-(but-3-yn-1-yl)-4-hydrazinylbenzamide hydrochloride] | reacts well |  |  |  |  |  | 
2 |  |  |  |  |  |  | C#CCNN.Cl [probe 1, prop-2-yn-1-ylhydrazine hydrochloride] | reacts well | 20 | 9 | 20 | 5 | 20 | 6
